Results published in patent publication US20190137505A1 (THE ARIZONA BOARD OF REGENTS ON BEHALF OF THE UNIVERSITY OF …, priority 2015, published 2019).
“Also recorded” adds a separate entry of the source.

Target: T1, plasminogen (Homo sapiens, UniProt P00747)
T1 construct: Glu-Pg, uPA, tPA, fibrinogen, and chromogenic substrate for Pn were purchased from Molecular Innovations (Novi, Mich.); purchased Molecular Innovations (Novi, Mich.)
Assay: LC-MS/MS identification of sites of MG adduction on plasminogen in vitro (Tables 1 and 12)
Conditions: 500 μM MG, 24 hr
Experimental: 10 μg Pg was incubated with MG (50-500 μM) in tris-buffered saline (TBS) for 24 hours at 37° C. Following modification, sample volumes were increased to 150 μL and placed in 5 kDa spin filters to reduce volume and remove excess MG from solution.
MG-modified (500 μM) and unmodified Pg control (same incubation conditions without MG) were added to 250 μL amount of rehydration buffer (6M urea, 2M thiourea, 2% CHAPS, 100 mM DTT, 0.5% 3-10 ampholytes) and 5 μL of 3-10 ampholytes (Bio-Rad). Sample rehydrated with a 13 cm 4-7 pH isoelectric focusing strip (GE Healthcare) overnight. Following rehydration, strips were placed in a Bio-Rad PROTEAN IEF Cell focusing instrument. Strips were first focused for 1 hour at 500 V, and then run at a maximum of 8,000V until the strips have reached a final total of 45,000 V/hrs at which point gels are held at 500V until removed. Focused strips were removed, reduced with DTT, cysteines carbamidomethylated with iodoacetamide, and run on a 4-20% gradient Criterion gel for 55 minutes at 200V. Gels were stained for stained according to manufacturer instructions with Imperial Blue Protein (ThermoScientific, Rockford, Ill.) and destained immediately with water. Gel bands were excised and trypsin digested.
Coomassie stained gel-bands were excised and washed in ddH2O for 15 min. H2O was removed and bands were incubated in 50/50 acetonitrile (ACN):ddH2O for 15 min. ACN:ddH2O was removed and bands were incubated with ACN for 5 min. ACN was removed and gels were incubated with 100 mM ammonium bicarbonate (AMBIC). An equal volume of ACN was added to make 1:1 solution and was incubated for 15 min. The ACN/AMBIC solution was removed and remaining gel bands were dried by speed-vacuum. 10 mM dithiothreitol (DTT) was added to each band and incubated at 56° C. for 45 min. DTT was removed and sample brought to room temperature (RT). Iodoacetamide (55 mM) was added to each sample and incubated at RT for 30 min in dark. Iodoacetamide was removed and 100 mM AMBIC was added and bands were incubated for 5 min. An equal volume of ACN was added to make a 1:1 solution and incubated for 15 min. The ACN/AMBIC solution was removed and bands were dried by speed-vacuum. Bands were digested with trypsin (400 ng/band) in 50 mM AMBIC and incubated on ice for 45 min. Tryptic solution was removed and 50 mM AMBIC was added to each band and incubated overnight at 37° C. to complete digestion. Digests were acidified using 10% trifluoroacetic acid (TFA). Supernatant was saved. Band was covered with TFA:ACN (0.1%:60%) and sonicated at 20° C. water bath for 30 min. Supernatant was combined with previous fraction. Sampled were speed vacuumed to a final volume of 10 μL prior to LC-MS/MS analysis on an LTQ Orbitrap Velos mass spectrometer as described below.
LC-MS/MS analysis of in-gel trypsin digested-proteins (Shevchenko et al., 1996) was carried out using a LTQ Orbitrap Velos mass spectrometer (Thermo Fisher Scientific, San Jose, Calif.) equipped with an Advion nanomate ESI source (Advion, Ithaca, N.Y.), following ZipTip (Millipore, Billerica, Mass.) C18 sample clean-up according to the manufacturer's instructions. Peptides were eluted from a C18 precolumn (100-μm id×2 cm, Thermo Fisher Scientific) onto an analytical column (75-μm ID×10 cm, C18, Thermo Fisher Scientific) using a 5-20% gradient of solvent B (acetonitrile, 0.1% formic acid) over 65 minutes, followed by a 20-35% gradient of solvent B over 25 minutes, all at a flow rate of 400 nl/min. Solvent A consisted of water and 0.1% formic acid. Data dependent scanning was performed by the Xcalibur v 2.1.0 software (Andon et al., 2002) using a survey mass scan at 60,000 resolution in the Orbitrap analyzer scanning m/z 350-1600, followed by collision-induced dissociation (CID) tandem mass spectrometry (MS/MS) of the fourteen most intense ions in the linear ion trap analyzer. […]

T1 sequence (P00747 20-810 limits assumed): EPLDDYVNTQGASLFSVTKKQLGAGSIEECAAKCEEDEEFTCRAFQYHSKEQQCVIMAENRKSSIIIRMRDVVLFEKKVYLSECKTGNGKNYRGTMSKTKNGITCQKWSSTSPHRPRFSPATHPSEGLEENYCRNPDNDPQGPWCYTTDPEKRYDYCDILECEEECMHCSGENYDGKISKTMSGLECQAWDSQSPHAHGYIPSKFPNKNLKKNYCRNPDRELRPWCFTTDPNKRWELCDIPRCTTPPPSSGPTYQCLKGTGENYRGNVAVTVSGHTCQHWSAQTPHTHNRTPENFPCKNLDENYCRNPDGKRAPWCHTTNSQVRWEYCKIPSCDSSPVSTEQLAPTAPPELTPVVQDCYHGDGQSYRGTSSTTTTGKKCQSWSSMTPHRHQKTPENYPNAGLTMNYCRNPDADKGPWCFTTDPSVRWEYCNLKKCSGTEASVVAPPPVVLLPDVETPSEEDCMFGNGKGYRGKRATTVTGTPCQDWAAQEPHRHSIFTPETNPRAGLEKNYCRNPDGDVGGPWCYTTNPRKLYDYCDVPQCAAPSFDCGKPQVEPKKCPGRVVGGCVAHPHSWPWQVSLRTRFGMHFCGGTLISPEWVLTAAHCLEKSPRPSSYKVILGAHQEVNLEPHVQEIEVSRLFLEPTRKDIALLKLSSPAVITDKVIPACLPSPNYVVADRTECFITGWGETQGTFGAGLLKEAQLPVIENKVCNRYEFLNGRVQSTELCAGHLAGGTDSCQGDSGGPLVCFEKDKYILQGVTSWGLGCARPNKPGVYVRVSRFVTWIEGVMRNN

## CC(=O)C=O [MG, Methylglyoxal]
Plasminogen site 43
  Modifications: MG-HI
Plasminogen site 61
  Modifications: MG-DH; also recorded: MG-HI
Plasminogen site 68
  Modifications: MG-DH; also recorded: MG-HI
Plasminogen site 70
  Modifications: MG-DH; also recorded: MG-HI
Plasminogen site 115
  Modifications: MG-HI
Plasminogen site 117
  Modifications: MG-HI; also recorded: MG-DH
Plasminogen site 134
  Modifications: MG-DH
Plasminogen site 220
  Modifications: MG-DH; also recorded: MG-HI
Plasminogen site 223
  Modifications: MG-HI
Plasminogen site 234
  Modifications: MG-DH
Plasminogen site 242
  Modifications: MG-DH; also recorded: MG-HI
Plasminogen site 265
  Modifications: MG-DH; also recorded: MG-HI
Plasminogen site 290
  Modifications: MG-HI
Plasminogen site 312
  Modifications: MG-DH; also recorded: MG-HI
Plasminogen site 324
  Modifications: MG-HI; also recorded: MG-DH
Plasminogen site 389
  Modifications: MG-HI; also recorded: MG-DH
Plasminogen site 474
  Modifications: MG-HI; also recorded: MG-DH
Plasminogen site 493
  Modifications: MG-HI; also recorded: MG-DH
Plasminogen site 504
  Modifications: MG-HI; also recorded: MG-DH
Plasminogen site 530
  Modifications: MG-HI; also recorded: MG-DH
Plasminogen site 561
  Modifications: MG-HI; also recorded: MG-DH
Plasminogen site 582
  Modifications: MG-HI; also recorded: MG-DH
Plasminogen site 644
  Modifications: MG-HI
Plasminogen site 712
  Modifications: MG-DH; also recorded: MG-HI
Plasminogen site 767
  Modifications: MG-HI; also recorded: MG-DH
Plasminogen site 779
  Modifications: MG-HI; also recorded: MG-DH
Plasminogen site 789
  Modifications: MG-HI; also recorded: MG-DH
Plasminogen sites 115/117 on one peptide, two adducts
  Modifications: MG-HI;; also recorded: MG-HI; also recorded: MG-DH;; also recorded: MG-DH
Plasminogen sites 220/223 on one peptide, two adducts
  Modifications: MG-HI;; also recorded: MG-DH; also recorded: MG-HI; also recorded: MG-DH;
Plasminogen sites 312/324 on one peptide, two adducts
  Modifications: MG-DH;; also recorded: MG-HI; also recorded: MG-DH; also recorded: MG-HI;
Plasminogen sites 474/493 on one peptide, two adducts
  Modifications: MG-DH;; also recorded: MG-HI; also recorded: MG-HI;
Plasminogen sites 489/504 on one peptide, two adducts
  Modifications: MG-HI;; also recorded: MG-DH
Plasminogen sites 779/789 on one peptide, two adducts
  Modifications: MG-HI;; also recorded: MG-DH; also recorded: MG-HI; also recorded: MG-DH;
Site 43, MG-HI, C(+57)EEDEEFTC(+57)RAFQYHSK
  Spectra Observed: 1
Site 61, MG-DH, EQQC(+57)VIMAENRK
  Spectra Observed: 3
Site 61, MG-HI, EQQC(+57)VIMAENRK
  Spectra Observed: 4
Site 68, MG-DH, SSIIIRMR
  Spectra Observed: 2
Site 68, MG-HI, KSSIIIRMR
  Spectra Observed: 1
Site 70, MG-DH, M(+16)RDVVLFEK
  Spectra Observed: 2
Site 70, MG-DH, MRDVVLFEK
  Spectra Observed: 7
Site 70, MG-DH, MRDVVLFEKK
  Spectra Observed: 2
Site 70, MG-HI, M(+16)RDVVLFEK
  Spectra Observed: 4
Site 70, MG-HI, MRDVVLFEK
  Spectra Observed: 4
Site 70, MG-HI, MRDVVLFEKK
  Spectra Observed: 4
Site 115, MG-HI, WSST SPHRPR
  Spectra Observed: 4
Site 117, MG-DH, WSSTSPHRPRFSPATHPSEGLEENYC(+57)R
  Spectra Observed: 9
Site 117, MG-HI, WSSTSPHRPRFSPATHPSEGLEENYC(+57)R
  Spectra Observed: 9
Site 134, MG-DH, FSPATHPSEGLEENYCRNPDNDPQGPWC(+57)YTTDPEKR
  Spectra Observed: 1
Site 220, MG-DH, NPDRELRPWC(+57)FTTDPNK
  Spectra Observed: 1
Site 220, MG-DH, NPDRELRPWC(+57)FTTDPNKR
  Spectra Observed: 6
Site 220, MG-HI, NPDRELRPWC(+57)FTTDPNK
  Spectra Observed: 5
Site 223, MG-HI, ELRPWC(+57)FTTDPNKR
  Spectra Observed: 4
Site 223, MG-HI, NPDRELRPWC(+57)FTTDPNKR
  Spectra Observed: 11
Site 234, MG-DH, RWELC(+57)DIPR0
  Spectra Observed: 2
Site 242, MG-DH, WELC(+57)DIPRC(+57)TTPPPSSGPTYQC(+57)LK
  Spectra Observed: 6
Site 242, MG-HI, WELC(+57)DIPRC(+57)TTPPPSSGPTYQC(+57)LK
  Spectra Observed: 3
Site 265, MG-DH, GTGENYRGNVAVTVSGHTC(+57)QHWSAQTPHTHNR
  Spectra Observed: 7
Site 265, MG-HI, GTGENYRGNVAVTVSGHTC(+57)QHWSAQTPHTHNR
  Spectra Observed: 5
Site 290, MG-HI, GNVAVTVSGHTC(+57)QHWSAQTPHTHNRTPENFPC(+57)K, MH+ 3809.751
  Spectra Observed: 12
Site 290, MG-HI, GNVAVTVSGHTC(+57)QHWSAQTPHTHNRTPENFPC(+57)K, MH+ 3827.75
  Spectra Observed: 4
